Test results as given in patent US11019816B2, “Composition comprising cinmethylin-containing microparticles and a further herbicide” (BASF Agro B.V., priority 2017, dated 2021).
In brackets after ≈: the same amount, converted by molar mass.

Assays:
[1] = tested on: Raphanus raphanistrum; assay: Field trial, post-emergence herbicidal activity; assay type: in vivo; conditions: RAPRA, 31 DAT
Description: (§1) Winter wheat was seeded in different soils ranging from sandy loam to clay loam soil containing 2.1-5.5% of organic matter.
(§2) For the post emergence treatment, the plants were first grown up to the 2 leaf stage (BBCH 12). Here, the herbicidal compositions were suspended or emulsified in water as distribution medium and sprayed using finely distributing nozzels.
(§3) The herbicidal activity for the individual herbicidal compositions (solo and mixture applications) was assessed 31 days after treatment (DAT).
(§4) The evaluation for the damage on winter wheat and undesired weeds caused by the tested compositions was carried out using a scale from 0 to 100%, compared to the untreated control plants. Here, 0 means no damage and 100 means complete destruction of the plants.

[2] = tested on: Lamium amplexicaule; assay: Field trial, post-emergence herbicidal activity; assay type: in vivo; conditions: LAMAM, 31 DAT
Description: as §1, §2, §3, §4

[3] = tested on: Capsella bursa-pastoris; assay: Field trial, post-emergence herbicidal activity; assay type: in vivo; conditions: CAPBP, 31 DAT
Description: as §1, §2, §3, §4

[4] = tested on: Triticum aestivum; assay: Field trial, phytotoxicity (damage) on winter wheat; conditions: TRZAW (winter wheat, crop damage), post-emergence, 31 DAT
Description: as §2
Cinmethylin was used in the solo application as an emulsion concentrate with an active ingredient concentration of 750 g/l.
The mixture of cinmethylin and picolinafen as an emulsifiable concentrate was prepared from cinmethylin as an emulsifiable concentrate (EC) and picolinafen as a water dispersable granule (WG) having an active ingredient concentration of 500 g/l and 50 g/l, respectively.
as §3, §4

[5] = tested on: Matricaria inodora; assay: Field trial, post-emergence herbicidal activity; assay type: in vivo; conditions: MATIN, 31 DAT
Description: as §1, §2, §3, §4

[6] = tested on: Alopecurus myosuroides; assay: Field trial, post-emergence herbicidal activity; assay type: in vivo; conditions: ALOMY, 31 DAT
Description: as §1, §2, §3, §4

[7] = at 20° C.; cited from earlier work

Structure (SMILES)	herbicidal activity ([1]; use rate 50 g ai/ha) [%]	herbicidal activity ([2]; use rate 50 g ai/ha) [%]	herbicidal activity ([3]; use rate 50 g ai/ha) [%]	herbicidal activity ([4]; use rate 50 g ai/ha) [%]	herbicidal activity ([4]; use rate 100 g ai/ha) [%]	herbicidal activity ([5]; use rate 50 g ai/ha) [%]	herbicidal activity ([6]; use rate 50 g ai/ha) [%]	herbicidal activity ([1]; use rate 500 g ai/ha) [%]	solubility in water [7] [µg/mL]	herbicidal activity ([2]; use rate 500 g ai/ha) [%]	herbicidal activity ([3]; use rate 500 g ai/ha) [%]	herbicidal activity ([4]; use rate 500 g ai/ha) [%]	herbicidal activity ([4]; use rate 1000 g ai/ha) [%]	herbicidal activity ([5]; use rate 500 g ai/ha) [%]	herbicidal activity ([6]; use rate 500 g ai/ha) [%]
O=C(Nc1ccc(F)cc1)c1cccc(Oc2cccc(C(F)(F)F)c2)n1 [picolinafen (WG), picolinafen]	98	94	96	0	0	69	0	–	–	–	–	–	–	–	–
Cc1ccccc1CO[C@@H]1C[C@@]2(C(C)C)CC[C@]1(C)O2 (racemic) [cinmethylin, (±)-2-exo-(2-methylbenzyloxy)-1-methyl-4-isopropyl-7-oxabicyclo[2.2.1]heptane]	–	–	–	–	–	–	–	10	63 (≈ 230 µM)	53	65	0	0	62	100
